Laboratory results reported in article PMC4552745, “Novel Gallate Triphenylphosphonium Derivatives with Potent Antichagasic Activity” (PLoS ONE, 2015).

Key:
[1] = test system: T. cruzi trypomastigotes (Y strain); experiment: MTT reduction viability assay on isolated trypomastigotes; type: cell-based, Trypanosoma cruzi; conditions: for EC50: Trypanosoma cruzi, Y strain, 24 hours exposure, MTT assay, mean ± SD, read-out: EC50 T. cruzi trypomastigote; for Selectivity index (VERO/T. cruzi): ratio of EC50 VERO cells to EC50 T. cruzi trypomastigote
Procedure: Trypomastigotes (Y strain, DTU T. cruzi II) were obtained from infected VERO cells (Chlorocebus sabaeus kidney fibroblasts obtained from ATCC, ATCC number: CCL-81). The cells were exposed to trypomastigotes (Y strain) at a 3:1 density (trypomastigote:cell). The trypomastigotes were allowed to infect the cells for 24 h, and the supernatant was then extracted. The trypomastigotes were released from VERO cells at 4 days after infection. The parasites were harvested and collected for viability assays. The effect of the drugs on parasite viability was evaluated using the tetrazolium salt (MTT) reduction assay. […] Alternatively, VERO cells attached to the surface of 96-well plates were washed and incubated with MTT (5 mg/mL). After incubation for 4 h at 37°C, the generated formazan crystals were dissolved with 100 μL of 10% (w/v) sodium dodecyl sulfate (SDS) in 0.01 M HCl. The plates were then incubated overnight at 37°C, and the optical density (OD) was determined using a microplate reader (Labsystems Multiskan MS, Finland) at 570 nm. Under these conditions, the OD is directly proportional to the number of viable cells in each well [33, 34]. All of the experiments were performed at least three times. […] The data from each experiment were plotted using the formazan absorbance versus the log of the concentration, and the plot was fitted to the dose-response (four-parameters) equation using the software Graph Pad Prism V5.0, obtaining the EC50 value per drug and per experiment. The data are expressed as the mean ± DS of the EC50s obtained from each experiment.

[2] = test system: T. cruzi trypomastigotes mitochondrial transmembrane potential (ΔΨm); experiment: Mitochondrial membrane potential assessment by JC-1; type: cell-based, Trypanosoma cruzi; conditions: 1 μM, 2 hours, Fig 5A bottom panel; FCCP 100 μM positive control
Procedure: For the determination of mitochondrial membrane potential by JC-1, we adapted the method described by Cossariza and Savioli (2001). In total, 5 x 10^6 trypomastigotes were seeded in 24-well plates in 1 mL of RPMI medium without FBS. The parasites were exposed to 0.1 or 1 μM of the different TPP^+ derivatives for 2 hours; alternatively, the parasites were exposed to 100 μM FCCP (Sigma Aldrich, USA) for 15 min as a positive control of the uncoupling of mitochondrial respiration. The cells were then washed with 500 μL of PBS and centrifuged at 1500 x g for 5 min. The parasites were then resuspended in 1 mL of PBS at 37°C. JC-1 (Molecular Probes, Applied Biosytems, USA) 1 mg/mL in DMSO was added at a final concentration of 5 μg/mL, and the mixtures were incubated for 15 min at 37°C in the dark. Next, the samples were centrifuged at 1500 x g for 5 min, and the supernatants, which contained unincorporated JC-1, were discarded. The pellet was suspended in PBS (1 mL), and fluorescence was measured using a FACSAria-III flow cytometer (BD Biosciences, USA). We used 488 nm as the excitation wavelength; the emission of JC-1 monomers was detected using the FITC filter (530/30), and the JC-1 aggregates were detected using the PE filter (585/42). Each measurement involved 5,000 events. The data were analyzed using FACSDiva 6.1 software.

mouse = test system: mouse; set-up: method as in PMID 24568614; conditions: 15 mg/kg; cited from earlier work

| SMILES | EC50 [1] | Selectivity index (VERO/T. cruzi) [1] | JC-1 red fluorescence (aggregates) [2] | safety in mouse models (mouse) |
| --- | --- | --- | --- | --- |
| O=C(OCCCCCCCCCC[P+](c1ccccc1)(c1ccccc1)c1ccccc1)c1cc(O)c(O)c(O)c1.[Br-] [TPP^+-C10, triphenyl(10-((3,4,5-trihydroxybenzoyl)oxy)-decyl) phosphonium bromide] | 1000 ± 600 nM | 11.3 | induced mitochondrial changes, though to a lower extent than FCCP | safe |
| O=C(OCCCCCCCCCCCC[P+](c1ccccc1)(c1ccccc1)c1ccccc1)c1cc(O)c(O)c(O)c1.[Br-] [TPP^+-C12, triphenyl(12-((3,4,5-trihydroxybenzoyl)oxy)-dodecyl) phosphonium bromide] | 1000 ± 700 nM | 10.9 | induced mitochondrial changes, though to a lower extent than FCCP |  |
